# Measured values taken from patent US20040266732A1, “Therapeutic agents, methods, and treatments” (priority 2002, published 2004).
# Assays:
# Test in all cases: NCI 60 cell-line test
# Format in all cases: cell-based, human
# CCRF-CEM = CCRF-CEM (Leukemia)
# Description: (§1) Methodology: The NCI conducted a test of the MT103 drug against 60 human cell lines, with a minimum of five concentrations of MT103 at 10-fold dilutions. A 48 hour continuous drug exposure was used, and a sulforhodamine B (SRB) protein assay was used to estimate cell viability and growth. The human tumor cell lines of the cancer screening panel were grown in RPMI 1640 medium containing 5% fetal bovine serum and 2 mM L-glutamine. Cells were inoculated into 96 well microtiter plates in 100 μL at plating densities ranging from 5,000 to 40,000 cells/well depending on the doubling time of individual cell lines. After cell inoculation, the microtiter plates are incubated at 37° C., 5% CO2, 95% air, and 100% relative humidity for 24 h prior to addition of experimental drugs.
# (§2) After 24 h, two plates of each cell line were fixed in situ with TCA, to represent a measurement of the cell population for each cell line at the time of drug addition (Tz). MT103 was solubilized in dimethyl sulfoxide at 400-fold the desired final maximum test concentration and stored frozen prior to use. At the time of drug addition, an aliquot of frozen concentrate was thawed and diluted to twice the desired final maximum test concentration with complete medium containing 50 μg/ml gentamicin. Additional four, 10-fold or ½ log serial dilutions were made to provide a total of five drug concentrations plus control. Aliquots of 100 μl of these different drug dilutions were added to the appropriate microtiter wells already containing 100 μl of medium, resulting in the required final drug concentrations.
# (§3) Following drug addition, the plates were incubated for an additional 48 h at 37° C., 5% CO2, 95% air, and 100% relative humidity. For adherent cells, the assay was terminated by the addition of cold TCA. Cells were fixed in situ by the gentle addition of 50 μl of cold 50% (w/v) TCA (final concentration, 10% TCA) and incubated for 60 minutes at 4° C. The supernatant was discarded, and the plates were washed five times with tap water and air dried. Sulforhodamine B (SRB) solution (100 μl) at 0.4% (w/v) in 1% acetic acid was added to each well, and plates were incubated for 10 minutes at room temperature. After staining, unbound dye was removed by washing five times with 1% acetic acid and the plates were air-dried. Bound stain was subsequently solubilized with 10 mM trizma base, and the absorbance was read on an automated plate reader at a wavelength of 515 nm. For suspension cells, the methodology was the same except that the assay was terminated by fixing settled cells at the bottom of the wells by gently adding 50 μl of 80% TCA (final concentration, 16% TCA). Using the seven absorbance measurements (time zero, (Tz), control growth, (C), and test growth in the presence of drug at the five concentration levels (Ti)), the percentage growth was calculated at each of the drug concentrations levels. Percentage growth inhibition was calculated as:
# (§4) [(Ti-Tz)/(C-Tz)]×100 for concentrations for which Ti>/=Tz
# (§5) [(Ti-Tz)/Tz]×100 for concentrations for which Ti<Tz.
# (§6) Three dose response parameters were calculated for each experimental agent. Growth inhibition of 50% (GI50) was calculated from [(Ti-Tz)/(C-Tz)]×100=50, which is the drug concentration resulting in a 50% reduction in the net protein increase (as measured by SRB staining) in control cells during the drug incubation. The drug concentration resulting in total growth inhibition (TGI) was calculated from Ti=Tz. The LC50 (concentration of drug resulting in a 50% reduction in the measured protein at the end of the drug treatment as compared to that at the beginning) indicating a net loss of cells following treatment was calculated from [(Ti-Tz)/Tz]×100=−50. Values were calculated for each of these three parameters if the level of activity is reached; however, if the effect was not reached or was exceeded, the value for that parameter was expressed as greater or less than the maximum or minimum concentration tested.
# 786-0 = 786-0 (Renal Cancer)
# Description: as §1, §2, §3, §4, §5, §6
# NCI/ADR-RES = NCI/ADR-RES (Breast Cancer)
# Description: as §1, §2, §3, §4, §5, §6
# M14 = M14 (Melanoma)
# Description: as §1, §2, §3, §4, §5, §6
# SK-MEL-2 = SK-MEL-2 (Melanoma)
# Description: as §1, §2, §3, §4, §5, §6
# MCF7 = MCF7 (Breast Cancer)
# Description: as §1, §2, §3, §4, §5, §6
# T-47D = T-47D (Breast Cancer)
# Description: as §1, §2, §3, §4, §5, §6
# MDA-N = MDA-N (Breast Cancer)
# Description: as §1, §2, §3, §4, §5, §6
# HT29 = HT29 (Colon Cancer)
# Description: as §1, §2, §3, §4, §5, §6
# COLO 205 = COLO 205 (Colon Cancer)
# Description: as §1, §2, §3, §4, §5, §6
# SK-MEL-28 = SK-MEL-28 (Melanoma)
# Description: as §1, §2, §3, §4, §5, §6
# A549/ATCC = A549/ATCC (Non-Small Cell Lung Cancer)
# Description: as §1, §2, §3, §4, §5, §6
# SK-MEL-5 = SK-MEL-5 (Melanoma)
# Description: as §1, §2, §3, §4, §5, §6
# UACC-257 = UACC-257 (Melanoma)
# Description: as §1, §2, §3, §4, §5, §6
# SR = SR (Leukemia)
# Description: as §1, §2, §3, §4, §5, §6
# [1] = read-out: LC50 (the source's name)
smiles,measurement,setting,value
CC1(C)C2CC[C@@]1(CS(=O)(=O)N(C1CCCCC1)C1CCCCC1)C(O)C2 (stereo partly drawn) [MT103],TGI,CCRF-CEM,>1.00E−04
same,IC50,CCRF-CEM; read-out: G150,29.7 µM
same,CC50,CCRF-CEM; [1],> 100 µM
same,TGI,786-0,>1.00E−04
same,IC50,786-0; read-out: G150,46.3 µM
same,CC50,786-0; [1],> 100 µM
same,TGI,NCI/ADR-RES,>1.00E−04
same,IC50,NCI/ADR-RES; read-out: G150,34.9 µM
same,CC50,NCI/ADR-RES; [1],> 100 µM
same,TGI,M14,>1.00E−04
same,IC50,M14; read-out: G150,67.8 µM
same,CC50,M14; [1],> 100 µM
same,TGI,SK-MEL-2,6.77E−05
same,IC50,SK-MEL-2; read-out: G150,26 µM
same,CC50,SK-MEL-2; [1],> 100 µM
same,TGI,MCF7,9.05E−05
same,IC50,MCF7; read-out: G150,20.6 µM
same,CC50,MCF7; [1],> 100 µM
same,TGI,T-47D,>1.00E−04
same,IC50,T-47D; read-out: G150,62 µM
same,CC50,T-47D; [1],> 100 µM
same,TGI,MDA-N,>1.00E−04
same,IC50,MDA-N; read-out: G150,27.1 µM
same,CC50,MDA-N; [1],> 100 µM
same,TGI,HT29,>1.00E−04
same,IC50,HT29; read-out: G150,23.5 µM
same,CC50,HT29; [1],> 100 µM
same,TGI,COLO 205,4.98E−05
same,IC50,COLO 205; read-out: G150,21.3 µM
same,CC50,COLO 205; [1],> 100 µM
same,TGI,SK-MEL-28,>1.00E−04
same,IC50,SK-MEL-28; read-out: G150,50.7 µM
same,CC50,SK-MEL-28; [1],> 100 µM
same,TGI,A549/ATCC,>1.00E−04
same,IC50,A549/ATCC; read-out: G150,28.3 µM
same,CC50,A549/ATCC; [1],> 100 µM
same,TGI,SK-MEL-5,3.61E−05
same,IC50,SK-MEL-5; read-out: G150,16.8 µM
same,CC50,SK-MEL-5; [1],77.7 µM
same,TGI,UACC-257,9.53E−05
same,IC50,UACC-257; read-out: G150,28.5 µM
same,CC50,UACC-257; [1],> 100 µM
same,TGI,SR,>1.00E−04
same,IC50,SR; read-out: G150,23.8 µM
same,CC50,SR; [1],> 100 µM
